Reference: publication PMC3961306, “Comparison of the Cancer Gene Targeting and Biochemical Selectivities of All Targeted Kinase Inhibitors Approved for Clinical Use” (PLoS ONE, 2014)
Read-outs that look alike come from different tables or passages of the source.

Legend:
Assay in all cases: Kinase profiling in a biochemical assay panel (mobility shift assays and ELISA), %-inhibition at 1 μM; selectivity entropy
[1] = target: panel of more than 300 wild-type and mutant kinases (313 kinase panel) (Homo sapiens, UniProt Q9Y463)
Sequence of panel of more than 300 wild-type and mutant kinases (313 kinase panel) (Homo sapiens, UniProt Q9Y463) (Q9Y463 whole entry, change not shown): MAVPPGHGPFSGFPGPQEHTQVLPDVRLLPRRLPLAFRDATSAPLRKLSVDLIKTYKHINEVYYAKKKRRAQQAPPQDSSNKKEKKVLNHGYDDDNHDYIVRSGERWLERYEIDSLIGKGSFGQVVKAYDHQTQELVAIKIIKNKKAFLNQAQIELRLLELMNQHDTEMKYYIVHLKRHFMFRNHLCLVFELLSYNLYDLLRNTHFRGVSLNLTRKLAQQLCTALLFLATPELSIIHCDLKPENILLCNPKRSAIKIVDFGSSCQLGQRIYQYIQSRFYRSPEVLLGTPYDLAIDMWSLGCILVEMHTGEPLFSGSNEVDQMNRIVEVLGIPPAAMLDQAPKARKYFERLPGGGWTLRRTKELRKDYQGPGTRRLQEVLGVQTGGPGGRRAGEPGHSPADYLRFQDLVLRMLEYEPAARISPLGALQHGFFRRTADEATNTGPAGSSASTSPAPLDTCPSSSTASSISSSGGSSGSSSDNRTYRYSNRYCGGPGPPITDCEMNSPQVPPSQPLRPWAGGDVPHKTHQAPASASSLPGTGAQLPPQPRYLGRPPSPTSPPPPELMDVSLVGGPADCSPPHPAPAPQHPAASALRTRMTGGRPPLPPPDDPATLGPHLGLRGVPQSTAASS

[2] = target: panel of more than 300 wild-type and mutant kinases (313 kinase panel) (Homo sapiens, UniProt P42336)
[3] = target: panel of more than 300 wild-type and mutant kinases (313 kinase panel) (Homo sapiens, UniProt P24723)
Sequence of panel of more than 300 wild-type and mutant kinases (313 kinase panel) (Homo sapiens, UniProt P24723) (P24723 whole entry, change not shown): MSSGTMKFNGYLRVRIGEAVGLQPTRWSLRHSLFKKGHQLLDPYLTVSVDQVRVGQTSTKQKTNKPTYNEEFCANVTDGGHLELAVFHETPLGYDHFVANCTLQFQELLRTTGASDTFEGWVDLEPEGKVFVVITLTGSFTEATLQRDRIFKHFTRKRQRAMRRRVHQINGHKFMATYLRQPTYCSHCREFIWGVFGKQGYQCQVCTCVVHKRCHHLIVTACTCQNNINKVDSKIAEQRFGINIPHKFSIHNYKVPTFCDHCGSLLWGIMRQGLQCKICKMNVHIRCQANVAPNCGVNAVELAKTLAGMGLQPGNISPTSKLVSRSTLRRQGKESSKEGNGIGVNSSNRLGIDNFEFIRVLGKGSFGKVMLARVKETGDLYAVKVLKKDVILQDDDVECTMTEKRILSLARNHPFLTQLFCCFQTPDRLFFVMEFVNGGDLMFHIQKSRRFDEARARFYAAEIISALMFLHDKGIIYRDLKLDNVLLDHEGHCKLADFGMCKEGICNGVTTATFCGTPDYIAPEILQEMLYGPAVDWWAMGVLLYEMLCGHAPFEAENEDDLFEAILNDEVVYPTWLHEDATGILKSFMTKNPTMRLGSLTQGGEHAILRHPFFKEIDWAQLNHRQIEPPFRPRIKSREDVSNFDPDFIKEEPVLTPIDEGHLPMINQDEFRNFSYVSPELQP

[4] = target: panel of more than 300 wild-type and mutant kinases (313 kinase panel) (Homo sapiens, UniProt Q8N4C8)
Sequence of panel of more than 300 wild-type and mutant kinases (313 kinase panel) (Homo sapiens, UniProt Q8N4C8) (Q8N4C8 whole entry, change not shown): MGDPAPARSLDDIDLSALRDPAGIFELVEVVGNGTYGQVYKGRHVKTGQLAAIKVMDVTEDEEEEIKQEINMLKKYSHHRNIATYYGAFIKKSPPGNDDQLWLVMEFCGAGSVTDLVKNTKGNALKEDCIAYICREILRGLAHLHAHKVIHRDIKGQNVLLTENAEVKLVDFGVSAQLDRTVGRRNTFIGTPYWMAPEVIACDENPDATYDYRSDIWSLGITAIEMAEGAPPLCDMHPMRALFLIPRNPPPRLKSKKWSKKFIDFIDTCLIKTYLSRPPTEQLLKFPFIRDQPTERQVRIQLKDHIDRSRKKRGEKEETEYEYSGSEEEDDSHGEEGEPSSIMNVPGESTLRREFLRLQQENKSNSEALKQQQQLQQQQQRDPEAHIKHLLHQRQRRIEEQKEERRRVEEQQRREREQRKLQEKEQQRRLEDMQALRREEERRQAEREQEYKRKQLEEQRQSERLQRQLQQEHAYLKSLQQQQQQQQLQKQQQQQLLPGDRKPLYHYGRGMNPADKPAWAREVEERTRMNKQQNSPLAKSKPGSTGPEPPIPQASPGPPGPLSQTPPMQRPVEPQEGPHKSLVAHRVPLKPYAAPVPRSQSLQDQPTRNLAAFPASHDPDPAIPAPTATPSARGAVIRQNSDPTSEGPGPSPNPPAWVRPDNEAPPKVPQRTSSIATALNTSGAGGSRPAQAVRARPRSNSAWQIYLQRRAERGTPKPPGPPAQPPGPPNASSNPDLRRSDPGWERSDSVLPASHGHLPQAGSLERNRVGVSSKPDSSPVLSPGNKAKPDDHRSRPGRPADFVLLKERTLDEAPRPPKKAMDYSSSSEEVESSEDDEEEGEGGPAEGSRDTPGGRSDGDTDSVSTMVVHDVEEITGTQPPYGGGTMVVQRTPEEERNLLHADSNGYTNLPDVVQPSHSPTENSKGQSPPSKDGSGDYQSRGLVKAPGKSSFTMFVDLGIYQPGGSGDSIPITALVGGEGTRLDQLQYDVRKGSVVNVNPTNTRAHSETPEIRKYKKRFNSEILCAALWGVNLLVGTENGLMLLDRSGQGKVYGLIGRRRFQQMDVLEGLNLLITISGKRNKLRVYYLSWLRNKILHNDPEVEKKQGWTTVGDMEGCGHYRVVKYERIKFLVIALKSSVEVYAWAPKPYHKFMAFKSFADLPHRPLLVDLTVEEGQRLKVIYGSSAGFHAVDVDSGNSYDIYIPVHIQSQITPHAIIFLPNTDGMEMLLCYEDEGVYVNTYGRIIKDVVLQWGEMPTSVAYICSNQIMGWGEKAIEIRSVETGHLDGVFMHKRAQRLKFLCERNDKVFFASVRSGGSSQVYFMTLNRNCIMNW

[5] = target: T1, panel of more than 300 wild-type and mutant kinases (313 kinase panel) (Homo sapiens, UniProt Q06418)
T1 sequence (Q06418 41-890): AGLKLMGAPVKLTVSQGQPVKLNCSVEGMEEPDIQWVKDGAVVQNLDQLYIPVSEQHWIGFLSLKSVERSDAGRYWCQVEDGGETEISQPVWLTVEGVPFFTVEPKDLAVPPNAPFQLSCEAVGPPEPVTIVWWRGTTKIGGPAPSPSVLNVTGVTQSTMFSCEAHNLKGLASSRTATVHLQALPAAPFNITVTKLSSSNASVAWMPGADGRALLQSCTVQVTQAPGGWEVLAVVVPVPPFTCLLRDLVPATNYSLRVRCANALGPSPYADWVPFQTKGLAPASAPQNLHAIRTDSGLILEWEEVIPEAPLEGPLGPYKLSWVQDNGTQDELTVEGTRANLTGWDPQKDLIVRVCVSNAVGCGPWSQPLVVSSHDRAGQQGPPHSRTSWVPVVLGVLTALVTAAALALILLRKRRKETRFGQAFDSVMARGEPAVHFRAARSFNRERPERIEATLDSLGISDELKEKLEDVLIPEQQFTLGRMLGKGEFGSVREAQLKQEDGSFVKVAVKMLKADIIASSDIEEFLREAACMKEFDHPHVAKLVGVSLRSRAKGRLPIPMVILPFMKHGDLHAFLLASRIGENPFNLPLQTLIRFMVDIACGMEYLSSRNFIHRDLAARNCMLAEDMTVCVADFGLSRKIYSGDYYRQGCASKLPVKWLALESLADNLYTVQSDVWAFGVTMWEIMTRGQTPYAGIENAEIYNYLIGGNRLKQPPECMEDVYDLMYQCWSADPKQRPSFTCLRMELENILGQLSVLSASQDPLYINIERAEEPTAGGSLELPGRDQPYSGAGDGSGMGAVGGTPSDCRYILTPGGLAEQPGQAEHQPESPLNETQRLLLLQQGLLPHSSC

[6] = target: panel of more than 300 wild-type and mutant kinases (313 kinase panel) (Homo sapiens, UniProt P22455, N535K); settings: kinase FGFR4(N535K); compound at 1 μM
Sequence of panel of more than 300 wild-type and mutant kinases (313 kinase panel) (Homo sapiens, UniProt P22455, N535K) (P22455 22-802 N535K): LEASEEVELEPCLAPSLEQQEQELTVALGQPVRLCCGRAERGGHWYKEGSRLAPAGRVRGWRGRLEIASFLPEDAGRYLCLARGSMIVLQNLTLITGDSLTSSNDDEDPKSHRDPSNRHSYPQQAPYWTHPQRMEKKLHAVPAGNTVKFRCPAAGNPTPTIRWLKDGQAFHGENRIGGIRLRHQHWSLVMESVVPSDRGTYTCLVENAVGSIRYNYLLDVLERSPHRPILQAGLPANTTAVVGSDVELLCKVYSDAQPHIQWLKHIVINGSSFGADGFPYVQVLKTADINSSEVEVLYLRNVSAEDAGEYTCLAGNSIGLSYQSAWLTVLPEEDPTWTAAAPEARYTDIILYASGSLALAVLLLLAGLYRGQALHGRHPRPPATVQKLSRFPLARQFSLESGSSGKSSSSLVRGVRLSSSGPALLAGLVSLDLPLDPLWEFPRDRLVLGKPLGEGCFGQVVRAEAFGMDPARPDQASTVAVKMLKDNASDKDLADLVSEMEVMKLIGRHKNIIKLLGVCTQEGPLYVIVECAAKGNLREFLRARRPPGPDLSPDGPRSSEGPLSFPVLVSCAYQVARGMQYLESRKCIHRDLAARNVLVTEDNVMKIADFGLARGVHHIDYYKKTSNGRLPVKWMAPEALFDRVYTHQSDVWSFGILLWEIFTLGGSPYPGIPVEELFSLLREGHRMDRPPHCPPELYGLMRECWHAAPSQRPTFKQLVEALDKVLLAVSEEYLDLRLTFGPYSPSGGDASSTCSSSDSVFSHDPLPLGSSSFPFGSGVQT

[7] = target: panel of more than 300 wild-type and mutant kinases (313 kinase panel) (Homo sapiens, UniProt P54764)
Sequence of panel of more than 300 wild-type and mutant kinases (313 kinase panel) (Homo sapiens, UniProt P54764) (P54764 20-986, change not shown): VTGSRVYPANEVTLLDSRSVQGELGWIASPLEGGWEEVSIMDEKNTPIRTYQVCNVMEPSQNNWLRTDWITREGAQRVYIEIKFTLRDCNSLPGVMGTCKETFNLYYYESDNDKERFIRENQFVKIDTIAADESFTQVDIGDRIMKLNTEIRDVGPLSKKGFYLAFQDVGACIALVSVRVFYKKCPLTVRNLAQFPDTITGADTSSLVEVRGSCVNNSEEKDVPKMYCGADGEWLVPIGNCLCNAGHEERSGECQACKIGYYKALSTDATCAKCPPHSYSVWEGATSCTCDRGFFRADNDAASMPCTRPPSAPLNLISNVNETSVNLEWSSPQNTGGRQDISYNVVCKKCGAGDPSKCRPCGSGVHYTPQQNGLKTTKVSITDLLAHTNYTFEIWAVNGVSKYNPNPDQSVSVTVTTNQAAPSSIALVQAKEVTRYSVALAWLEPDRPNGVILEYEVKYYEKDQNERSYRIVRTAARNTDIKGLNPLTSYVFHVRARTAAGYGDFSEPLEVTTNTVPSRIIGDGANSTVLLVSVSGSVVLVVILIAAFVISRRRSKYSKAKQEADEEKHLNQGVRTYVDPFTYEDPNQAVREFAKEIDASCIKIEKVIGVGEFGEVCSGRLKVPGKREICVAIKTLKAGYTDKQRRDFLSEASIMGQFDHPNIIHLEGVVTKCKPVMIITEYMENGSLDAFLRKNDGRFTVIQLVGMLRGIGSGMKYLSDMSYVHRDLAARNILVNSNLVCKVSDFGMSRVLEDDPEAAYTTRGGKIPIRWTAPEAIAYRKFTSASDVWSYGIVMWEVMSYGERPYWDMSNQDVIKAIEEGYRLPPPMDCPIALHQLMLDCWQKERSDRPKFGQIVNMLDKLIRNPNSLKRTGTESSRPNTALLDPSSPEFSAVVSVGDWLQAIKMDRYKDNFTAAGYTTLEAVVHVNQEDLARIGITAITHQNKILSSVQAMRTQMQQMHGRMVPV

[8] = target: panel of more than 300 wild-type and mutant kinases (313 kinase panel) (Homo sapiens, UniProt Q15208)
Sequence of panel of more than 300 wild-type and mutant kinases (313 kinase panel) (Homo sapiens, UniProt Q15208) (Q15208 whole entry, change not shown): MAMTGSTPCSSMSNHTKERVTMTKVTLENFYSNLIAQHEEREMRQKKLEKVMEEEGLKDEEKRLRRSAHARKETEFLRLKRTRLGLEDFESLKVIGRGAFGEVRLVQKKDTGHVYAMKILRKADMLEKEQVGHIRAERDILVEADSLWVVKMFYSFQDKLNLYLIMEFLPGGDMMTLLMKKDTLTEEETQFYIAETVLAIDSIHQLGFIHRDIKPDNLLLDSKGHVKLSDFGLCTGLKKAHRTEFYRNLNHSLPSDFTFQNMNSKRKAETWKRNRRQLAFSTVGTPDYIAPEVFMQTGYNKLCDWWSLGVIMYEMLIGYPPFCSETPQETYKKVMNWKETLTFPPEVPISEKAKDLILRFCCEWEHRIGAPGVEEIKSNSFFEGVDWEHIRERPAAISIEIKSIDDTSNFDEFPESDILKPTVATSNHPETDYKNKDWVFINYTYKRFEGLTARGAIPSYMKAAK

[9] = target: panel of more than 300 wild-type and mutant kinases (313 kinase panel) (Homo sapiens, UniProt P22694)
[10] = target: T2, panel of more than 300 wild-type and mutant kinases (313 kinase panel) (Homo sapiens, UniProt P51955)
T2 sequence (P51955 1-445): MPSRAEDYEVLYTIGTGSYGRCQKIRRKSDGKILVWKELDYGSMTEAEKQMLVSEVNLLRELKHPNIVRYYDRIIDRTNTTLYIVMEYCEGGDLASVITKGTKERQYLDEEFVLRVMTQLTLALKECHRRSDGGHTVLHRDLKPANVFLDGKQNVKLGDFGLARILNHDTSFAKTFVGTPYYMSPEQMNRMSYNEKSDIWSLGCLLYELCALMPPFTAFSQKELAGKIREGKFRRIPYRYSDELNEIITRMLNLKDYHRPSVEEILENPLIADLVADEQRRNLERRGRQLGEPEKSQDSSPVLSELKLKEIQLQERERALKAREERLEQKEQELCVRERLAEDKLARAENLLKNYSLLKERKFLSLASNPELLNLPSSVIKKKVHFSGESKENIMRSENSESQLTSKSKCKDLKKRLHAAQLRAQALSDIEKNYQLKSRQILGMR

[11] = kinase DYRK1B, compound at 1 μM

SMILES | %-inhibition of DYRK1B [1, 11] [%] | %-inhibition of PIK3CA/PIK3R1 ([2]; kinase PIK3CA/PIK3R1, 1 μM) [%] | %-inhibition of PKCη ([3]; kinase PKCη, 1 μM) [%] | %-inhibition of MINK ([4]; kinase MINK, 1 μM) [%] | %-inhibition of TYRO3 ([5]; kinase TYRO3, compound at 1 μM) [%] | %-inhibition of FGFR4(N535K) [6] [%] | %-inhibition of EPHA4 ([7]; kinase EPHA4, compound at 1 μM) [%] | %-inhibition of NDR1 ([8]; kinase NDR1, 1 μM) [%] | %-inhibition of PKACβ ([9]; kinase PKACβ, 1 μM) [%] | %-inhibition of NDR1 ([8]; 1 µM) [%] | %-inhibition of NEK2 ([10]; kinase NEK2, 1 μM) [%] | %-inhibition of DYRK1B [1] [%] | %-inhibition of NEK2 ([10]; 1 µM) [%] | %-inhibition of PIK3CA/PIK3R1 ([2]; 1 µM) [%] | %-inhibition of PKCη ([3]; 1 µM) [%] | %-inhibition of MINK ([4]; 1 µM) [%] | %-inhibition of PKACβ ([9]; 1 µM) [%] | %-inhibition of TYRO3 ([5]; 1 µM) [%] | %-inhibition of EPHA4 ([7]; 1 µM) [%]
Cc1ccc(C(=O)Nc2ccc(CN3CCN(C)CC3)c(C(F)(F)F)c2)cc1C#Cc1cnc2cccnn12 [ponatinib] | 2 | 45 | 5.45 | 80 | 45 |  |  |  |  |  |  |  |  |  |  |  |  |  | 
CC(C)(C)c1nc(-c2cccc(NS(=O)(=O)c3c(F)cccc3F)c2F)c(-c2ccnc(N)n2)s1 [dabrafenib] | 29 | 4.42 | 9 | -0.772 |  | 8 | 12 | -0.891 |  |  |  |  |  |  |  |  |  |  | 
COc1cc(Nc2c(C#N)cnc3cc(OCCCN4CCN(C)CC4)c(OC)cc23)c(Cl)cc1Cl [bosutinib] | -5 | 37 | 1.14 | 100 |  | 30 |  |  | 52 | -3.49 |  |  |  |  |  |  |  |  | 
Cc1nc(Nc2ncc(C(=O)Nc3c(C)cccc3Cl)s2)cc(N2CCN(CCO)CC2)n1 [dasatinib] |  |  | 3 | 40 |  |  |  | -1.85 | -1.68 |  |  |  |  |  |  |  |  |  | 
CO[C@H]1C[C@@H]2CC[C@@H](C)[C@@](O)(O2)C(=O)C(=O)N2CCCC[C@H]2C(=O)O[C@H]([C@H](C)C[C@@H]2CC[C@@H](OC(=O)C(C)(CO)CO)[C@H](OC)C2)CC(=O)[C@H](C)/C=C(\C)[C@@H](O)[C@@H](OC)C(=O)[C@H](C)C[C@H](C)/C=C/C=C/C=C/1C [temsirolimus] | -11 | 22 | 8 | -4 | -1.34 | 9 | -4.51 | -4.55 | -6 |  | -5 |  |  |  |  |  |  |  | 
C#Cc1cccc(Nc2ncnc3cc(OCCOC)c(OCCOC)cc23)c1 [erlotinib] |  |  |  |  |  |  |  |  |  | 3.48 |  | -28 | -0.556 | 11 | 6.34 | 19 | -3 | 20 | 32
CCCS(=O)(=O)Nc1ccc(F)c(C(=O)c2c[nH]c3ncc(-c4ccc(Cl)cc4)cc23)c1F [vemurafenib] | -1.74 | 24 | -22 | 10 | 3.16 | 9 | -2 | -3.81 | 2.66 |  | -1 |  |  |  |  |  |  |  | 
N#CC[C@H](C1CCCC1)n1cc(-c2ncnc3[nH]ccc23)cn1 [ruxolitinib] | 8 | 42 | -1.36 |  | -3 | 4.48 | 12 | 88 |  |  | -4 |  |  |  |  | -6 | 39 |  | 
COc1cc2c(Nc3ccc(Br)cc3F)ncnc2cc1OCC1CCN(C)CC1 [vandetanib] | -2.71 | 23 | -9 | 24 | 94 | 81 |  | -9 | -0.0886 |  | -7.42 |  |  |  |  |  |  |  | 
CS(=O)(=O)CCNCc1ccc(-c2ccc3ncnc(Nc4ccc(OCc5cccc(F)c5)c(Cl)c4)c3c2)o1 [lapatinib] | 3 |  | 2.46 |  | 13 |  | -0.823 | -0.543 | -3 |  | -3.7 |  |  | -9 |  | -0.581 |  |  | 
CCN(CC)CCNC(=O)c1c(C)[nH]c(/C=C2\C(=O)Nc3ccc(F)cc32)c1C [sunitinib] |  |  |  |  | 98 |  |  | 9 |  |  |  |  |  |  |  |  |  |  | 
O=S(=O)(c1cccc2cnccc12)N1CCCNCC1 [fasudil] | 4.76 | -7 | 35 | -1.41 | -1.23 | 0.156 | -6 | 18 |  |  | -1 |  |  |  |  |  |  |  | 
C[C@@H](Oc1cc(-c2cnn(C3CCNCC3)c2)cnc1N)c1c(Cl)ccc(F)c1Cl [crizotinib] | -3 |  | -8 | 0 |  | 6.5 | 58 | -1.48 | -2.3 |  | -2.69 |  |  |  |  |  |  |  | 
Cc1cn(-c2cc(NC(=O)c3ccc(C)c(Nc4nccc(-c5cccnc5)n4)c3)cc(C(F)(F)F)c2)cn1 [nilotinib] | -7.58 | 16 | 5.43 | 3 |  |  |  | -3 |  |  | -19 |  |  |  |  |  | 28 | -32 | 
Cc1ccc(Nc2nccc(N(C)c3ccc4c(C)n(C)nc4c3)n2)cc1S(N)(=O)=O [pazopanib] | -3 | 45 | -1.67 | 35 | 27 |  | 22 | 2.49 | 0.211 |  | 27 |  |  |  |  |  |  |  | 
COc1cc2nccc(Oc3ccc(NC(=O)C4(C(=O)Nc5ccc(F)cc5)CC4)cc3)c2cc1OC [cabozantinib] | -5 | 48 | 8.55 | -2 |  | 39 | 97 | -5.4 | -4.25 |  | -0.384 |  |  |  |  |  |  |  | 
